Reference: patent US6548270B1, “DNA encoding human acid-sensing ion channel BNaC4 (ASIC4)” (Ortho-McNeil Pharmaceutical, Inc., priority 2000, dated 2003)

Biological target: T1, human BNaC4 (Homo sapiens, UniProt Q96FT7)
T1 sequence (Q96FT7 1-539): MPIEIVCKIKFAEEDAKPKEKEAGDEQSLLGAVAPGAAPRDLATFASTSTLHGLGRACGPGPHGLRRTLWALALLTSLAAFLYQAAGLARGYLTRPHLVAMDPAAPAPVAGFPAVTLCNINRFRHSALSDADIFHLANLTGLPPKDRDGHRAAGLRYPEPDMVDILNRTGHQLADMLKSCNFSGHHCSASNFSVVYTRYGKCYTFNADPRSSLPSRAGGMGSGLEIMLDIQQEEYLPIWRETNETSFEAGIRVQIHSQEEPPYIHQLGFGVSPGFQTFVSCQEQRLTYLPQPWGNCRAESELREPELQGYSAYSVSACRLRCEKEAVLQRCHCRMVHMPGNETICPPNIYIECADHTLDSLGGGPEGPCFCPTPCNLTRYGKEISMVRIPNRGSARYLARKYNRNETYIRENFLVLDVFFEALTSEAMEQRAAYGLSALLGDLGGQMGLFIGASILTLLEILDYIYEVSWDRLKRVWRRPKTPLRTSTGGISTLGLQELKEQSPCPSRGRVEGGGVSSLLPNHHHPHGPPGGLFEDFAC
Experiment: pH 5.5-induced whole cell current in Xenopus oocytes injected with human BNaC4 cRNA (two-electrode voltage clamp)
Assay type: cell-based
Conditions: 200 uM amiloride, bath application; oocytes injected with hBNaC4 cRNA; n=3
Method: Xenopus laevis oocytes were prepared and injected using standard methods previously described and known in the art (Fraser et al., 1993). Ovarian lobes from adult female Xenopus laevis (Nasco, Fort Atkinson, Wis.) were teased apart, rinsed several times in nominally Ca-free saline containing: 82.5 mM NaCl, 2.5 mM KCl, 1 mM MgCl2, 5 mM HEPES, adjusted to pH 7.0 with NaOH (OR-2), and gently shaken in OR-2 containing 0.2% collagenase Type 1 (ICN Biomedicals, Aurora, Ohio) for 2-5 hours. When approximately 50% of the follicular layers were removed, Stage V and VI oocytes were selected and rinsed in media consisting of 75% OR-2 and 25% ND-96. […]
Oocytes were injected with 50 nl of the human BNaC4 RNA (0.002-5 ng). […] Whole cell agonist (protons)-induced currents were measured 1-6 days after injection with a conventional two-electrode voltage clamp (GeneClamp50O, Axon Instruments, Foster City, Calif.) using standard methods previously described and known in the art (Dascal, Nathan (1987) The use of Xenopus oocytes for the study of ion channels. CRC Critical reviews in Biochemistry 22:317-387). […]
Functional expression of human BNaC4 in Xenopus oocytes is shown: activation by pH 5.5. […] The oocyte was recorded 3 days after injection of 2 ng hBNaC CRNA. […] The BNaC4 oocytes tested produced currents of at least +60 nA (measured at +80 mV at the end of a voltage ramp protocol) (range +60 to +1240 nA). […]

block of the pH5.5-induced fast increase in conductance: 40+/−13%
SMILES: N=C(N)NC(=O)c1nc(Cl)c(N)nc1N [amiloride]
